Results on six molecules are retold here after PMC12524297 (International Journal of Molecular Sciences, 2025).

The test system of series [1] is Caenorhabditis elegans (C. elegans, N2 strain).
Series [2] is described as follows: In vitro assays confirming flagged compound (no details given). An excerpt: 5.Implementation and Reproducibility
5.1 Real-World Deployment in Chemical Safety Assessment
HazChemNet has been integrated into a cloud-based decision support system for chemical safety evaluation, enabling real-time toxicity prediction for industrial and regulatory use. Key applications include:
Industrial Chemical Screening:
A pharmaceutical company utilized HazChemNet to prioritize 1,200 candidate compounds for drug development. The model identified 18% as high-risk (toxic), reducing experimental testing costs by 35%.
Environmental Regulation Compliance:
A regulatory agency deployed the model to screen 5,000 industrial chemicals under the EU REACH framework.
HazChemNet achieved 89% concordance with expert evaluations, accelerating risk assessment workflows.
5.2 Case Study: Identification of Emerging Contaminants
We applied HazChemNet to predict the toxicity of per- and polyfluoroalkyl substances (PFAS), a class of persistent environmental pollutants. The model identified 22 out of 30 PFAS compounds as hazardous, including:
PFOS (Perfluorooctanesulfonic acid): Predicted probability = 0.93 (high risk).
GenX (Hexafluoropropylene oxide dimer acid): Predicted probability = 0.87 (moderate risk).
Validation: Experimental LC50 data from zebrafish assays confirmed the predictions with a Spearman correlation of ρ […]
5.3 Integration with Laboratory Information Systems […]

Read-outs that look alike come from different tables or passages of the source.

Regarding Gibberellin, the mortality result in series [1] (in vivo) is recorded as “no significant mortality”.
Turning to `CC(=O)[O-].CC(=O)[O-].[Pb+2]` [Lead Acetate], the LD50 in series [1] (L4-stage worms, 24 h at 20 °C, K-M buffer, Probit analysis) was in the range of 0.464 to 1 mg/mL.
Take `O=C(O)CC(O)(CC(=O)O)C(=O)O` [Citric Acid]: the mortality entry in series [1] (in vivo) is given as “no significant mortality”.
As to `O=C1C=CC(=O)C(Cl)=C1` [CID_123456], the “confirmation of hazard flag by in vitro assays” value in series [2] is reported as “confirmed by in vitro assays”.
Take `OCC(O)CO` [Glycerol]: the mortality entry in series [1] (in vivo) was “no significant mortality”.
As to Ethyl Alcohol, in series [1] (in vivo), the LD50 is 46.4 to 100 mg/mL.
